Results taken from US10294227B2, “Compounds” (UNIVERSITY COURT OF THE UNIVERSITY OF EDINBURGH, priority 2015, dated 2019).
Where two headings read alike, the source gives them in different places.

Legend:
[1] = biological target: RET (Homo sapiens (Human), UniProt P07949); test: Kinase screening assay (IC50)
[2] = biological target: T1, CYP1A2 (Homo sapiens (Human), UniProt P05177); test: CYP P450 inhibition
[3] = PBS, aqueous buffer
[4] = biological target: CYP3A4 (Homo sapiens (Human), UniProt P08684); test: CYP P450 inhibition
[5] = biological target: CYP2D6 (Homo sapiens (Human), UniProt P10635); test: CYP P450 inhibition
CYP2D6, sequence (P10635 whole entry): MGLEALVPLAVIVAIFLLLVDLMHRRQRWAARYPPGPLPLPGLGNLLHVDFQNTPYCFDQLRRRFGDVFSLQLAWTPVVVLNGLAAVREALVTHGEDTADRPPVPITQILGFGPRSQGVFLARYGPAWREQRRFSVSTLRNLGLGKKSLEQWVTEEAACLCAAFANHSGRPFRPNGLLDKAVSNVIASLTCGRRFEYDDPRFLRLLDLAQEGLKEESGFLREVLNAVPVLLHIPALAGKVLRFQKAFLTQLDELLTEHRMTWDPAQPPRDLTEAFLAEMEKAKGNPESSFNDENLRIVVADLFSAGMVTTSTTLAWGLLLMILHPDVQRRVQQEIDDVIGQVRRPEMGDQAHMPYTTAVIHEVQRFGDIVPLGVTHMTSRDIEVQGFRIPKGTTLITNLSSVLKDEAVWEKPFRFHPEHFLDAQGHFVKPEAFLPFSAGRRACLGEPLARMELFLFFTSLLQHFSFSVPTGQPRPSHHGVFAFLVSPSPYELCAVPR

[6] = biological target: CYP2C9 (Homo sapiens (Human), UniProt P11712); test: CYP P450 inhibition
CYP2C9, sequence (P11712 whole entry): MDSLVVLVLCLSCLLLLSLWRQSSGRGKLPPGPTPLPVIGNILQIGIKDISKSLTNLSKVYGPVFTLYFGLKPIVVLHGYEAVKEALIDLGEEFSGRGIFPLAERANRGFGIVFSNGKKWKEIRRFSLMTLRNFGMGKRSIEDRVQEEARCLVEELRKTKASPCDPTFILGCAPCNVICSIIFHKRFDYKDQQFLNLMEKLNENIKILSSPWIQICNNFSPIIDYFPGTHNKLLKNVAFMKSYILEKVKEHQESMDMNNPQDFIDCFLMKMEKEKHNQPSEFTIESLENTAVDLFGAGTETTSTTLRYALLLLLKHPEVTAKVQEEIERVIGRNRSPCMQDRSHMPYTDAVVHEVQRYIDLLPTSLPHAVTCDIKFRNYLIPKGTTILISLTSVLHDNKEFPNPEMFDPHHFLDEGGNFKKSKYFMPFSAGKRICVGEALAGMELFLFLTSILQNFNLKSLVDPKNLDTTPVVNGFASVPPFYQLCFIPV

[7] = biological target: T2, hERG channel (Homo sapiens (Human), UniProt Q12809); test: hERG Safety Assay, Ionworks high-throughput electrophysiology
[8] = biological target: KIT (Homo sapiens (Human), UniProt P10721); test: Kinase screening assay (IC50)
[9] = biological target: CYP2C19 (Homo sapiens (Human), UniProt P33261); test: CYP P450 inhibition
[10] = biological target: LYN (Homo sapiens (Human), UniProt P07948); test: Kinase screening assay (IC50)
LYN, sequence (P07948 whole entry): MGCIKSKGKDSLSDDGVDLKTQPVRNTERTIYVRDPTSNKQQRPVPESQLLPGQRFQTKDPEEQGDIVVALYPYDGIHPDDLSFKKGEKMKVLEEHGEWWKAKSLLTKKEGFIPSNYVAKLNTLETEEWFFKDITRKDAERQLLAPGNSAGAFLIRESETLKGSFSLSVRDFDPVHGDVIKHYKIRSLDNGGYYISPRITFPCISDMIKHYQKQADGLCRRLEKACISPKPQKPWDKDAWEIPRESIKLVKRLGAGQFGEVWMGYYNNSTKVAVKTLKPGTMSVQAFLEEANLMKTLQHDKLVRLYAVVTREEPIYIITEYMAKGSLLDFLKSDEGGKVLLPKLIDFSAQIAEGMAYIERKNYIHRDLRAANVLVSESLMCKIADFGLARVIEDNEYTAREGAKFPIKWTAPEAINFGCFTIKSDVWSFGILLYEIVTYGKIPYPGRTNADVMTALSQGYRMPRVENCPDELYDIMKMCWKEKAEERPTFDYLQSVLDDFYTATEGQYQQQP

[11] = biological target: FGR (Homo sapiens (Human), UniProt P09769); test: Kinase screening assay (IC50)
FGR, sequence (P09769 whole entry): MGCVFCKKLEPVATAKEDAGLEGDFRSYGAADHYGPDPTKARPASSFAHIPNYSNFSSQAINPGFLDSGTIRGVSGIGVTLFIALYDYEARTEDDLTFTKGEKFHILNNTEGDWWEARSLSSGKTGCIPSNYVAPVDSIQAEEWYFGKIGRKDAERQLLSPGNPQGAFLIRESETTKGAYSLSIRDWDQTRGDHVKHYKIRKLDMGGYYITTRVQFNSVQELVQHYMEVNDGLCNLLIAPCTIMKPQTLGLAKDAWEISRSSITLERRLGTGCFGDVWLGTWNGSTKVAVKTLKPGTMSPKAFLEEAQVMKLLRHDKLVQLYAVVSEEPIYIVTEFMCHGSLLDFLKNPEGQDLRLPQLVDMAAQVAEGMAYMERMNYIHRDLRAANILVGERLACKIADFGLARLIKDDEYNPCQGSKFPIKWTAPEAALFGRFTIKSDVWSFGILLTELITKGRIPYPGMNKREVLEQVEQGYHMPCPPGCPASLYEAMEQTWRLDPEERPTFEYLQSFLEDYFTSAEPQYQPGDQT

[12] = biological target: BLK (Homo sapiens (Human), UniProt P51451); test: Kinase screening assay (IC50)
BLK, sequence (P51451 whole entry): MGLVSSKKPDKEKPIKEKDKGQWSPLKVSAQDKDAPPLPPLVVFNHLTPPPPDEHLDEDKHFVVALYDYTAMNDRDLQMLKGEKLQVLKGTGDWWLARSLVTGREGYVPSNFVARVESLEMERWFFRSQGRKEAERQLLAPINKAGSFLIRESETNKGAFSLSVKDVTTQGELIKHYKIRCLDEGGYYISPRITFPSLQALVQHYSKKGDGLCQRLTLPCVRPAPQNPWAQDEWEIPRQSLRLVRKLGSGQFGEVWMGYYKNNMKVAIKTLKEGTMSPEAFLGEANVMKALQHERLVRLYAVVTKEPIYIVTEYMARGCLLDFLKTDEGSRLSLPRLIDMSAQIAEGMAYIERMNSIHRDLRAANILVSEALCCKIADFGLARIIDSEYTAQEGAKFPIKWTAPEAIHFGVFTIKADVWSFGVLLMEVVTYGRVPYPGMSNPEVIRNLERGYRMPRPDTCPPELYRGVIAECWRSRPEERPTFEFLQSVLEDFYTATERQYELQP

[13] = biological target: HCK (Homo sapiens (Human), UniProt P08631); test: Kinase screening assay (IC50)
[14] = biological target: mTOR (Homo sapiens (Human), UniProt P42345); test: Kinase screening assay (IC50); assay type: biochemical
[15] = rat, serum
[16] = biological target: PDGFRa (Homo sapiens (Human), UniProt P16234); test: Kinase screening assay (IC50); assay type: biochemical
PDGFRa, sequence (P16234 24-1089): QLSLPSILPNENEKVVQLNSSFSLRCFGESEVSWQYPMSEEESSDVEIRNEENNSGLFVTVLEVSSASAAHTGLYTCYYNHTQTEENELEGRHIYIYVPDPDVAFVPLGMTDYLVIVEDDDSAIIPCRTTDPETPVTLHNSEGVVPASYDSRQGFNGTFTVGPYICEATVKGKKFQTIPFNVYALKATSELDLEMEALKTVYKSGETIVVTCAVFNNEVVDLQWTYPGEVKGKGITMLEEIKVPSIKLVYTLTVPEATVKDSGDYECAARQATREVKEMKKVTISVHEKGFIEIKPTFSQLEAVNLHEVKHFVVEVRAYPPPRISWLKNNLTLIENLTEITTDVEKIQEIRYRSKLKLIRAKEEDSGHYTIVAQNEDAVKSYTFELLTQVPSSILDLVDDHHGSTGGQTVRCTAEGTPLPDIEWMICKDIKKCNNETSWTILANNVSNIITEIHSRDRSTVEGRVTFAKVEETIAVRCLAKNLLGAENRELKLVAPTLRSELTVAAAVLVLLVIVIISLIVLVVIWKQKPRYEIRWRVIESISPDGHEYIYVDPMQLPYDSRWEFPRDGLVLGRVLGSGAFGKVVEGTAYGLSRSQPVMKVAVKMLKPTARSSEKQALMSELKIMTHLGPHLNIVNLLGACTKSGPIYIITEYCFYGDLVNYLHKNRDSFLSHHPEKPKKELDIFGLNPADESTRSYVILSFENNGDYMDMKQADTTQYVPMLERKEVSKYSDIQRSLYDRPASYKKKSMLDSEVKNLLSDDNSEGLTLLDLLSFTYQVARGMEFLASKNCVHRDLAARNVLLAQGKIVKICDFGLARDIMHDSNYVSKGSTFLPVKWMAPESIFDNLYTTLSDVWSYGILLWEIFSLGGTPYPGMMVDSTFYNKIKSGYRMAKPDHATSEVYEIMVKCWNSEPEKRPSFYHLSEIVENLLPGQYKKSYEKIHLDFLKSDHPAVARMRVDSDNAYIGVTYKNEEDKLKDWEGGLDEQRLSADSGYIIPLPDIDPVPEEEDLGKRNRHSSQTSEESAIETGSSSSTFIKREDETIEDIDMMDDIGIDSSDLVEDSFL

[17] = human, serum
[18] = biological target: T2, hERG channel; test: Predictor hERG Fluorescence Polarization Assay; assay type: binding; details: fluorescence polarization kit; read-out: hERG channel inhibition IC50
Description: These experiments corroborated the safety of the compounds.

[19] = Liver microsome stability; assay type: in vitro ADME; details: % of unmodified drug after 30 min incubation with liver microsomes
[20] = biological target: FYN (Homo sapiens (Human), UniProt P06241); test: Kinase screening assay (IC50)
[21] = biological target: T1, CYP1A2; test: in vitro
[22] = biological target: LCK (Homo sapiens (Human), UniProt P06239); test: Kinase screening assay (IC50)
LCK, sequence (P06239 whole entry): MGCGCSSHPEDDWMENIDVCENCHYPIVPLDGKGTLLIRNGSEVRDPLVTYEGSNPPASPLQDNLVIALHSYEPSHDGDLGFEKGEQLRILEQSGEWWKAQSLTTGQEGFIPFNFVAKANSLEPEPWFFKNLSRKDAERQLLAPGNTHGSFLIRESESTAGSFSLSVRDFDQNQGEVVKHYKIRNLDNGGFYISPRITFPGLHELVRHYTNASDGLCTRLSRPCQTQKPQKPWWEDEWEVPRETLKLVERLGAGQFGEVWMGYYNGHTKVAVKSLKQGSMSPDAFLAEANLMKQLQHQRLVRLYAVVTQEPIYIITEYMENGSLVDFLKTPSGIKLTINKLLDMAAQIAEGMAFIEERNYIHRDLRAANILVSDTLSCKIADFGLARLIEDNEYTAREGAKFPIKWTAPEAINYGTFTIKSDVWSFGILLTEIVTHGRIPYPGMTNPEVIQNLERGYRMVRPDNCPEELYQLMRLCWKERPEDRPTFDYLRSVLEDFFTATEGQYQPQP

[23] = biological target: selection of recombinant kinases; test: Kinase screening assay, panel summary; assay type: biochemical, human; details: 15 kinases of Table 2
[24] = tested on: MCF7 cells; test: Cell viability assay (PrestoBlue); assay type: cell-based; details: Homo sapiens, MCF7, 120 h; cell viability at day 5; read-out: Antiproliferative activity (EC50) MCF7
[25] = tested on: SYF fibroblasts (deficient for Src, Yes, and Fyn); test: Cell viability assay (PrestoBlue); assay type: cell-based, murine; details: Mus musculus, Fibroblast, 120 h; cell viability at day 5; read-out: Antiproliferative activity (EC50) SYF (−/− Src)
[26] = Stability in human plasma; assay type: in vitro ADME; details: % of unmodified drug after 120 min in plasma
[27] = biological target: FRK/PTK5 (Homo sapiens (Human), UniProt P42685); test: Kinase screening assay (IC50)
[28] = in vivo; details: female, mouse
[29] = Stability in rat plasma; details: % of unmodified drug after 120 min in plasma
[30] = Stability in mouse plasma; assay type: in vitro ADME; details: % of unmodified drug after 120 min in plasma
[31] = mouse, in vivo
[32] = read-out: Kinase Screening (IC50) RET
[33] = read-out: Target inhibition (IC50) RET, 10 μM ATP
[34] = read-out: Kinase Screening (IC50) c-KIT
[35] = read-out: Target inhibition (IC50) KIT, 10 μM ATP
[36] = read-out: Kinase Screening (IC50) LYN, Src Family
[37] = read-out: Target inhibition (IC50) LYN, 10 μM ATP
[38] = read-out: Kinase Screening (IC50) FGR, Src Family
[39] = read-out: Target inhibition (IC50) FGR, 10 μM ATP
[40] = read-out: Kinase Screening (IC50) BLK, Src Family
[41] = read-out: Target inhibition (IC50) BLK, 10 μM ATP
[42] = 10 μM ATP, read-out: Target inhibition (IC50) mTOR
[43] = read-out: Kinase Screening (IC50) mTOR
[44] = 10 μM ATP, read-out: Target inhibition (IC50) PDGFRa
[45] = read-out: Kinase Screening (IC50) PDGFRa
[46] = read-out: Kinase Screening (IC50) FYN, Src Family
[47] = read-out: Target inhibition (IC50) FYN, 10 μM ATP
[48] = read-out: Kinase Screening (IC50) LCK, Src Family
[49] = read-out: Target inhibition (IC50) LCK, 10 μM ATP

T1 sequence (P05177 whole entry): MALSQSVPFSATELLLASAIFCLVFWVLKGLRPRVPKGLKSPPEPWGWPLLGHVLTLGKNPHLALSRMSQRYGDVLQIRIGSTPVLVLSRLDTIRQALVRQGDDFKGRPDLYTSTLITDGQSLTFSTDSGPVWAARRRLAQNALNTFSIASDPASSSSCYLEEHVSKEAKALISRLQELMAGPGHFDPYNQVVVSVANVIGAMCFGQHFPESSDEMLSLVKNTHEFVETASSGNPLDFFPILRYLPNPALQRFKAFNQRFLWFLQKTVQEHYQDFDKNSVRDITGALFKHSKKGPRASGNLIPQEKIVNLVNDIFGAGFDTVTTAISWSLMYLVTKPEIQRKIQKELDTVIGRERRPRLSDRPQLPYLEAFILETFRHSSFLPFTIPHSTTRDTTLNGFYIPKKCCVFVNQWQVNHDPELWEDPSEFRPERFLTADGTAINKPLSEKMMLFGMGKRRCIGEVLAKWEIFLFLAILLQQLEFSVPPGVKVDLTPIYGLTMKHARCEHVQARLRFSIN

## COc1cc(-c2nn(CCN3CCC(N(C)C)CC3)c3ncnc(N)c23)ccc1NC(=O)OC(C)(C)C [Compound 506, tert-butyl N-[4-[4-amino-1-[2-[4-(dimethylamino)-1-piperidyl]ethyl]pyrazolo[3,4-d]pyrimidin-3-yl]-2-methoxy-phenyl]carbamate]
[1]
  IC50: > 10000 nM
[1]; [32]
  IC50: > 1000 nM
[1]; [33]
  IC50: > 1000 nM
[2]
  inhibition at 10 µM: 24.6%
[3]
  solubility: > 100 mg/mL
[4]
  inhibition at 10 µM: -74.6%
[5]
  inhibition at 10 µM: 31.8%
[6]
  inhibition at 10 µM: -23.1%
[7]
  IC50: 18200 nM
[8]
  IC50: 5130 nM
[8]; [34]
  IC50: > 1000 nM
[8]; [35]
  IC50: > 1000 nM
[9]
  inhibition at 10 µM: -5.4%

## COc1cc(-c2nn(CCN3CCC(N(C)C)CC3)c3ncnc(N)c23)ccc1NCc1ccccc1 [Compound 533, 3-[4-(benzylamino)-3-methoxy-phenyl]-1-[2-[4-(dimethylamino)-1-piperidyl]ethyl]pyrazolo[3,4-d]pyrimidin-4-amine]
[1]; [32]
  IC50: > 1000 nM
[1]; [33]
  IC50: > 1000 nM
[10]; [36]
  IC50: < 10 nM
[10]; [37]
  IC50: < 10 nM
[11]; [38]
  IC50: < 10 nM
[11]; [39]
  IC50: < 10 nM
[12]; [40]
  IC50: < 10 nM
[12]; [41]
  IC50: < 10 nM
[13]; read-out: Kinase Screening (IC50) HCK, Src Family
  IC50: < 10 nM
[13]; read-out: Target inhibition (IC50) HCK, 10 μM ATP
  IC50: < 10 nM
[14]; [42]
  IC50: > 1000 nM
[14]; [43]
  IC50: > 1000 nM
[4]
  inhibition at 10 µM: 3.1%
[5]
  inhibition at 10 µM: 7.4%
[15]
  fraction unbound: 0.106
[6]
  inhibition at 10 µM: -35.4%
[16]; [44]
  IC50: > 1000 nM
[16]; [45]
  IC50: > 1000 nM
[7]
  IC50: 2550 nM
[17]
  fraction unbound: 0.118
[18]
  IC50: 10000 to 15000 nM
[8]
  IC50: 100 to 1000 nM
[8]; [34]
  IC50: 100 to 1000 nM
[19]
  30 min Liver Microsome stability: 98.8%
[20]; [46]
  IC50: < 10 nM
[20]; [47]
  IC50: < 10 nM
[21]
  inhibition at 10 µM: 8.3%
[9]
  inhibition at 10 µM: 26.8%
[22]; [48]
  IC50: < 10 nM
[22]; [49]
  IC50: < 10 nM

## CN(C)C1CCN(CCn2nc(-c3ccc(CC(=O)O)cc3)c3c(N)ncnc32)CC1 [Compound 556, 2-[4-[4-amino-1-[2-[4-(dimethylamino)-1-piperidyl]ethyl]pyrazolo[3,4-d]pyrimidin-3-yl]phenyl]acetic acid]
[23]
  Target inhibition (IC50), remark on the whole panel: No inhibition found
[24]
  EC50: > 10000 nM
[25]
  EC50: > 10000 nM

## COc1cc(-c2nn(CCN3CCC(N(C)C)CC3)c3ncnc(N)c23)ccc1CC(=O)OC(C)(C)C [Compound 565, tert-butyl 2-[4-[4-amino-1-[2-[4-(dimethylamino)-1-piperidyl]ethyl]pyrazolo[3,4-d]pyrimidin-3-yl]-2-methoxy-phenyl]acetate]
[1]; [32]
  IC50: > 1000 nM
[1]; [33]
  IC50: > 1000 nM
[10]; [36]
  IC50: < 10 nM
[10]; [37]
  IC50: < 10 nM
[11]; [38]
  IC50: < 10 nM
[11]; [39]
  IC50: < 10 nM
[3]
  solubility: > 100 mg/mL
[12]; [40]
  IC50: < 10 nM
[12]; [41]
  IC50: < 10 nM
[26]
  Stability in human plasma: 94%
[27]; read-out: Kinase Screening (IC50) FRK, Src Family
  IC50: < 10 nM
[27]; read-out: Target inhibition (IC50) FRK/PTK5, 10 μM ATP
  IC50: < 10 nM
[14]; [42]
  IC50: > 1000 nM
[14]; [43]
  IC50: > 1000 nM
[4]
  inhibition at 10 µM: 5.7%
[5]
  inhibition at 10 µM: 9.4%
[15]
  fraction unbound: 0.139
[6]
  inhibition at 10 µM: -35.8%
[16]; [44]
  IC50: > 1000 nM
[16]; [45]
  IC50: > 1000 nM
[7]
  IC50: > 25000 nM
[17]
  fraction unbound: 0.177
[28]
  bioavailability: 52%
  half-life: 2 h
[28]; po
  bioavailability: 52%
[8]; [34]
  IC50: > 1000 nM
[8]; [35]
  IC50: > 1000 nM
[19]
  30 min Liver Microsome stability: 78.7%
[20]; [46]
  IC50: < 10 nM
[20]; [47]
  IC50: < 10 nM
[21]
  inhibition at 10 µM: 4.3%
[9]
  inhibition at 10 µM: -0.4%
[22]; [48]
  IC50: < 10 nM
[22]; [49]
  IC50: < 10 nM
[29]
  Stability in rat plasma: 93.3%^
[30]
  Stability in mouse plasma: 100%
[31]
  toxic effects in PK study: no toxic effects
